# Experiments:
# [1] = Thermodynamic relationship between Form 1 and Form 2 calculated from DSC melting data (method of Lian Yu); assay type: physicochemical; settings: for transition temperature: Form 2 T=110.35° C., ΔH=83.43 J/g; for thermodynamic relationship between the polymorphs (monotropic or enantiotropic): based on DSC data
# Procedure: For a polymorphic substance, a property of particular interest is the relative thermodynamic stability of the polymorphs. The questions to be answered are the following:
# b) for an enantiotropic system, where (Tt) lies.
# The thermodynamic relationship between Form 1 and Form 2 of compound of Formula (I) was calculated using the melting data of polymorphs measured by DSC, according to what disclosed in: Lian Yu, Journal of Pharmaceutical Science, Vol. 84, No. 8, August 1995.
# Taking samples of Form 1 and Form 2 as pure forms 1 and 2 respectively, and using the melting point and the ΔH obtainable by DSC data, it was possible to calculate the thermodynamic relationship and the transition temperature.
# The above calculation has been performed using DSC data for a different sample of polymorph Form 1 of compound of Formula (I), showing the Differential Scanning Calorimetry (DSC) thermogram of FIG. 7, obtained by the same method discussed above.
# [2] = Slurry conversion of a mixture of the two polymorphs, solid examined by XRPD; assay type: physicochemical; settings: 20.4 mg Form 1 + 21.3 mg Form 2 in saturated ethyl acetate/heptane=1/2 solution of Form 1, stirred at RT one day
# Procedure: A saturated solution in ethyl acetate/heptane=½ of Form 1 of compound of Formula (I) (25 mg in 400 μL) was prepared.
# 20.4 mg of solid Form 1 of compound of Formula (I) were mixed with 21.3 mg of solid Form 2 of compound of Formula (I). That solid mixture was added to the above saturated solution. The slurry so obtained was stirred at RT one day long. The day after, the solid and liquid phase were separated by centrifugation, and the solid was simply left on air in order to dry and then examined by XPRD.
# [3] = Form 1 sample of FIG. 6 (T=102.44° C., ΔH=71.18 J/g)
# [4] = Form 1 sample of FIG. 7 (T=100.09° C., ΔH=75.46 J/g)
SMILES,"transition temperature [1, 3] [°C]","transition temperature [1, 4] [°C]",thermodynamic relationship between the polymorphs (monotropic or enantiotropic) [1],solid form after slurrying a mixture of Form 1 and Form 2 [2]
"CC[C@H](Nc1cc(C)nc2c(-c3ccc(OC)cc3C)c(C)nn12)c1nc(C)no1 [Form 2, [3-(4-methoxy-2-methyl-phenyl)-2,5-dimethyl-pyrazolo[1,5-a]pyrimidin-7-yl]-[(S)-1-(3-methyl-[1,2,4]oxadiazol-5-yl)-propyl]-amine]",177,356,monotropic relationship,the solid was only constituted by Form 2
"CC[C@H](Nc1cc(C)nc2c(-c3ccc(OC)cc3C)c(C)nn12)c1nc(C)no1 [Form 1, [3-(4-Methoxy-2-methyl-phenyl)-2,5-dimethyl-pyrazolo[1,5-a]pyrimidin-7-yl]-[(S)-1-(3-methyl-[1,2,4]oxadiazol-5-yl)-propyl]-amine]",177,356,monotropic relationship,

# Reference: US8088779B2, “Pyrazolo [1,5-alpha] pyrimidinyl derivatives useful as corticotropin-releasing factor (CRF) receptor antagonists” (SmithKline Beecham (Cork) Limited, priority 2005, dated 2012)
